Measured values: ChEMBL document CHEMBL4359925, “Rational discovery of a highly novel and selective mTOR inhibitor” (Bioorg Med Chem Lett, 2019)
Activity calls are given as the source filed them. The calls are words filed in the database; no cut-off is given here.

Legend:
[1] = Half-life in dog at 0.2 mg/kg, iv; format: ADME, organism-based, Canis lupus familiaris; details: in vivo
[2] = Tmax in rat at 3 mg/kg, po; format: ADME, organism-based; details: in vivo
NCI-H1975 = test: Additive antiproliferative activity against human NCI-H1975 cells harboring EGFR […]/T790M mutant in presence of gemcitabine; format: functional, cell-based
[3] = Cmax in dog at 0.45 mg/kg, po; format: ADME, organism-based, Canis lupus familiaris; set-up: dose 0.45 mg/kg, route oral; details: in vivo
[4] = Half-life in dog at 0.45 mg/kg, po; format: ADME, organism-based, Canis lupus familiaris; details: in vivo
A498 = test: Antiproliferative activity against human A498; format: functional, cell-based
[5] = Cmax in rat at 100 mg/kg, po; format: ADME, organism-based; set-up: dose 100 mg/kg, route oral; details: in vivo
NCI-H460 [6] = test: Synergistic antiproliferative activity against human H460 cells harboring LKB1 mutant in presence of gemcitabine; format: functional, cell-based
[7] = Cmax in rat at 160 mg/kg, po; format: ADME, organism-based; set-up: dose 160 mg/kg, route oral; details: in vivo
[8] = Tmax in rat at 4.9 mg/kg, po; format: ADME, organism-based; details: in vivo
[9] = Half-life in mouse at 2.8 mg/kg, iv; format: ADME, organism-based; details: in vivo
[10] = Cmax in mouse at 8.7 mg/kg, po; format: ADME, organism-based; set-up: dose 8.7 mg/kg, route oral; details: in vivo
[11] = Half-life in mouse at 10.4 mg/kg, iv; format: ADME, organism-based; details: in vivo
HT-29 = test: Antiproliferative activity against human HT-29; format: functional, cell-based
[12] = Clearance in mouse at 10.4 mg/kg, iv; format: ADME, organism-based; details: in vivo
NCI-H460 [13] = test: Synergistic antiproliferative activity against human H460 cells harboring KRAS […] mutant in presence of gemcitabine
[14] = Clearance in mouse at 2.8 mg/kg, iv; format: ADME, organism-based; details: in vivo
[15] = Cmax in dog at 0.2 mg/kg, iv; format: ADME, organism-based, Canis lupus familiaris; set-up: dose 0.2 mg/kg, route intravenous; details: in vivo
[16] = Cmax in rat at 93 mg/kg, po; format: ADME, organism-based; set-up: dose 93 mg/kg, route oral; details: in vivo
[17] = Cmax in rat at 30 mg/kg, po; format: ADME, organism-based; set-up: dose 30 mg/kg, route oral; details: in vivo
[18] = Half-life in dog at 30 mg/kg, po; format: ADME, organism-based, Canis lupus familiaris; details: in vivo
[19] = Cmax in rat at 31 mg/kg, po; format: ADME, organism-based; set-up: dose 31 mg/kg, route oral; details: in vivo
[20] = Tmax in dog at 0.45 mg/kg, po; format: ADME, organism-based, Canis lupus familiaris; details: in vivo
[21] = Half-life in rat at 31 mg/kg, po; format: ADME, organism-based; details: in vivo
[22] = Tmax in dog at 10 mg/kg, po; format: ADME, organism-based, Canis lupus familiaris; details: in vivo
HCT-116 = test: Antiproliferative activity against human HCT116; format: functional, cell-based
NCI-H1650 = test: Additive antiproliferative activity against human NCI-H1650 cells harboring EGFR E746-A750del mutant in presence of gemcitabine; format: functional, cell-based
[23] = Cmax in dog at 30 mg/kg, po; format: ADME, organism-based, Canis lupus familiaris; set-up: dose 30 mg/kg, route oral; details: in vivo
[24] = Tmax in mouse at 26 mg/kg, po; format: ADME, organism-based; details: in vivo
NCI-H292 = test: Additive antiproliferative activity against human NCI-H292 cells in presence of gemcitabine; format: functional, cell-based
MIA PaCa-2 = test: Antiproliferative activity against human MIAPaCa2 cells; format: functional, cell-based
[25] = Tmax in dog at 30 mg/kg, po; format: ADME, organism-based, Canis lupus familiaris; details: in vivo
[26] = Half-life in rat at 95 mg/kg, po; format: ADME, organism-based; details: in vivo
[27] = Half-life in rat at 83 mg/kg, po; format: ADME, organism-based; details: in vivo
[28] = Half-life in dog at 10 mg/kg, po; format: ADME, organism-based, Canis lupus familiaris; details: in vivo
[29] = Cmax in rat at 0.8 mg/kg, iv; format: ADME, organism-based; set-up: dose 0.8 mg/kg, route intravenous; details: in vivo
[30] = Volume of distribution at steady state in mouse at 10.4 mg/kg, iv; format: ADME, organism-based; details: in vivo, read-out: Vdss
MCF7 = test: Antiproliferative activity against human MCF7; format: functional, cell-based
[31] = Half-life in rat at 160 mg/kg, po; format: ADME, organism-based; details: in vivo
A549 [32] = test: Synergistic antiproliferative activity against human A549 cells harboring LKB1 mutant in presence of gemcitabine; format: functional, cell-based
[33] = Tmax in mouse at 8.7 mg/kg, po; format: ADME, organism-based; details: in vivo
[34] = Cmax in rat at 3 mg/kg, po; format: ADME, organism-based; set-up: dose 3 mg/kg, route oral; details: in vivo
[35] = Cmax in rat at 4.9 mg/kg, po; format: ADME, organism-based; set-up: dose 4.9 mg/kg, route oral; details: in vivo
BT-474 = test: Antiproliferative activity against human BT474; format: functional, cell-based
DU-145 = test: Antiproliferative activity against human DU145 cells; format: functional, cell-based
[36] = Half-life in rat at 93 mg/kg, po; format: ADME, organism-based; details: in vivo
A549 [37] = test: Synergistic antiproliferative activity against human A549 cells harboring KRAS G12S mutant in presence of gemcitabine; format: functional, cell-based
[38] = Clearance in rat at 0.8 mg/kg, iv; format: ADME, organism-based; details: in vivo

half-life [1]: 7.5 h
Tmax [2]: 6.7 h
Cmax [3]: 0.249 µg/mL
half-life [4]: 10.3 h
Cmax [5]: 3.67 to 6.41 µg/mL
Cmax [7]: 7.7 µg/mL
Tmax [8]: 3.3 h
half-life [9]: 2.7 h
Cmax [10]: 5.37 µg/mL
half-life [11]: 2 h
clearance [12]: 0.24 L/h/kg
clearance [14]: 0.51 L/h/kg
Cmax [15]: 0.278 µg/mL
Cmax [16]: 7.22 µg/mL
Cmax [17]: 1.85 to 2.4 µg/mL
half-life [18]: 9.2 h
Cmax [19]: 1.91 to 2.7 µg/mL
Tmax [20]: 4 h
half-life [21]: 8.7 to 18.6 h
Tmax [22]: 10.7 h
Cmax [23]: 0.726 µg/mL
Tmax [24]: 6 h
Tmax [25]: 7.3 h
half-life [26]: 33.9 h
half-life [27]: 5.4 h
half-life [28]: 9.9 h
Cmax [29]: 0.873 µg/mL
Vd [30]: 1.16 L/kg
half-life [31]: 21.4 h
Tmax [33]: 4 h
Cmax [34]: 0.176 µg/mL
Cmax [35]: 1.19 µg/mL
half-life [36]: 23.4 h
clearance [38]: 0.414 L/h/kg
SMILES: CC(F)(F)CN1C(=O)[C@]2(C)COCCN2c2nc(-c3ccc(NC(=O)NC4CC4)cc3)ncc21
Activity (NCI-H1975): Active
Activity (A498): Active
Activity (NCI-H460 [6]): Active
Activity (HT-29): Active
Activity (NCI-H460 [13]): Active
Activity (HCT-116): Active
Activity (NCI-H1650): Active
Activity (NCI-H292): Active
Activity (MIA PaCa-2): Active
Activity (MCF7): Active
Activity (A549 [32]): Active
Activity (BT-474): Active
Activity (DU-145): Active
Activity (A549 [37]): Active
